Results published in ChEMBL document CHEMBL5465560, “Selectivity Literature for EUbOPEN Chemogenomic Library” (2024).

Key:
[1] = target: Interleukin-1 receptor-associated kinase 1 (Homo sapiens) (UniProt P51617); experiment: Selectivity interaction (Kinase panel (KiNativ target engagement assay in Jurkat cells)) EUB0001635a IRAK1; format: cell-based; settings: Selectivity number of off-targets 0.0, Selectivity number of targets 233.0, Source Knowledge https://www.sciencedirect.com/science/article/pii/S2451945619300674?via%3Dihub, at 1 µM
[2] = target: MAP/microtubule affinity-regulating kinase 3 (Homo sapiens) (UniProt P27448); experiment: Selectivity interaction (KinomeScan (DiscoverX)) EUB0000595a MARK3; settings: at 10 µM
[3] = target: T1, Serine/threonine-protein kinase 36 (Homo sapiens) (UniProt Q9NRP7); experiment: Selectivity interaction (KinomeScan (DiscoverX)) EUB0000695a STK36; settings: at 100 nM
T1 sequence (whole entry): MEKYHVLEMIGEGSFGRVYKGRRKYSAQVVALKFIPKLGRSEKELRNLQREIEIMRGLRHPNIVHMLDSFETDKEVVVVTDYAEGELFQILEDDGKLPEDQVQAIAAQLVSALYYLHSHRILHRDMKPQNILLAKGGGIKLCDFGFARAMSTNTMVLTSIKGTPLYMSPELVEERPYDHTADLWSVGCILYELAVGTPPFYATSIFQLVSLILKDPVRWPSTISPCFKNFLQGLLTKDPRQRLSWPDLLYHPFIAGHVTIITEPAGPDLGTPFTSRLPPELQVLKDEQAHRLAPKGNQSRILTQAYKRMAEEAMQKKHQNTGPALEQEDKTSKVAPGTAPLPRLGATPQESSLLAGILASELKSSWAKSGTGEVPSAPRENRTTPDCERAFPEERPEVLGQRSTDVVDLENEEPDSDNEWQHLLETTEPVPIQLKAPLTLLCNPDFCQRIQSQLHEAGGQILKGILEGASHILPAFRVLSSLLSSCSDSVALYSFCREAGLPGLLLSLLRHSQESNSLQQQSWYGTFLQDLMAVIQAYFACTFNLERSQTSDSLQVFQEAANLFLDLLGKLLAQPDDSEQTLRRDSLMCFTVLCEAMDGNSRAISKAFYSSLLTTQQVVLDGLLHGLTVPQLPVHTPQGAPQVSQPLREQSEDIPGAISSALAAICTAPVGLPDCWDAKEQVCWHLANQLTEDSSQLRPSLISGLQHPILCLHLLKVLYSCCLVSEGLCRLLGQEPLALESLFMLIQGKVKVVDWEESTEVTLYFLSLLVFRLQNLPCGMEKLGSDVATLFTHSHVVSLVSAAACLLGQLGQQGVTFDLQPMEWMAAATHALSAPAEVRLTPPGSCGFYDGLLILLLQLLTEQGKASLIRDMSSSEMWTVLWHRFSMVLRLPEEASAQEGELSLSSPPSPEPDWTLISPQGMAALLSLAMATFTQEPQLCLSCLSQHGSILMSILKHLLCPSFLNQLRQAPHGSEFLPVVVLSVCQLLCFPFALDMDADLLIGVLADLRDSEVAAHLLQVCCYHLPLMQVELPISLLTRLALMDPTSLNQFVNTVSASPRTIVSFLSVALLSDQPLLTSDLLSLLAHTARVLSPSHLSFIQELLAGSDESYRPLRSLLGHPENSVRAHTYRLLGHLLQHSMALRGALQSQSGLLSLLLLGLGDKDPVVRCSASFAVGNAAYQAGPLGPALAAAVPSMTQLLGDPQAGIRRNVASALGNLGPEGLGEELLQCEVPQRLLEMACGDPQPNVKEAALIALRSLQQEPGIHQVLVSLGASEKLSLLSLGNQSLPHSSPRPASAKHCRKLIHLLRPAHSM

[4] = target: T2, Mitogen-activated protein kinase kinase kinase 12 (Homo sapiens) (UniProt Q12852); experiment: Selectivity interaction (KinomeScan (DiscoverX)) EUB0001079a MAP3K12; settings: at 1 µM
T2 sequence (whole entry): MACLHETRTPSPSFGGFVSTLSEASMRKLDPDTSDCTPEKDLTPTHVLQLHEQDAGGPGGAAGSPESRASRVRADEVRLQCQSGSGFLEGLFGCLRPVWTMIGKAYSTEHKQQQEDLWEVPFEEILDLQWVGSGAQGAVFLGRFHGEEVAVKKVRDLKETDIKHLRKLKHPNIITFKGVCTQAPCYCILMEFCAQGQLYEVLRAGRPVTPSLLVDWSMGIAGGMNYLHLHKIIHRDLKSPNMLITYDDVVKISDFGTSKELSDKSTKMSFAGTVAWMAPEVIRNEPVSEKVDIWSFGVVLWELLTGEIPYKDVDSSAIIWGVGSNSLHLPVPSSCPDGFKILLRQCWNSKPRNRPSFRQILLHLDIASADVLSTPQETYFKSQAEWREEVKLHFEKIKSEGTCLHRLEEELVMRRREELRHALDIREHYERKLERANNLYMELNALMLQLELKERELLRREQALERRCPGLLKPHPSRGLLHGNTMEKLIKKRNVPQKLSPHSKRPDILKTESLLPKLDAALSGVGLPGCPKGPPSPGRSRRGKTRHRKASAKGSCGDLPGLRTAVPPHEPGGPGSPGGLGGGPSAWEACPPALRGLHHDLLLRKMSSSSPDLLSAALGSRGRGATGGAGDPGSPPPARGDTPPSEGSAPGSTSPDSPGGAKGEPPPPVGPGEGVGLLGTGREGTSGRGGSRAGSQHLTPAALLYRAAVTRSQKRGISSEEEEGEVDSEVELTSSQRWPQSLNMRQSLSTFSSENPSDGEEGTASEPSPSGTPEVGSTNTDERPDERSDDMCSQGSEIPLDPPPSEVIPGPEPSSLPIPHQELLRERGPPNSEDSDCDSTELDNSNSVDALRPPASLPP

[5] = target: Tyrosine-protein kinase Fgr (Homo sapiens) (UniProt P09769); experiment: Selectivity interaction (ProQinase) EUB0000171b FGR
[6] = target: T3, Alpha-2C adrenergic receptor (Homo sapiens) (UniProt P18825); experiment: Selectivity interaction (Panel of kinases, GPCRs, ion channels and transporters (enzymatic assay)) EUB0000266bCl ADRA2C
T3 sequence (whole entry): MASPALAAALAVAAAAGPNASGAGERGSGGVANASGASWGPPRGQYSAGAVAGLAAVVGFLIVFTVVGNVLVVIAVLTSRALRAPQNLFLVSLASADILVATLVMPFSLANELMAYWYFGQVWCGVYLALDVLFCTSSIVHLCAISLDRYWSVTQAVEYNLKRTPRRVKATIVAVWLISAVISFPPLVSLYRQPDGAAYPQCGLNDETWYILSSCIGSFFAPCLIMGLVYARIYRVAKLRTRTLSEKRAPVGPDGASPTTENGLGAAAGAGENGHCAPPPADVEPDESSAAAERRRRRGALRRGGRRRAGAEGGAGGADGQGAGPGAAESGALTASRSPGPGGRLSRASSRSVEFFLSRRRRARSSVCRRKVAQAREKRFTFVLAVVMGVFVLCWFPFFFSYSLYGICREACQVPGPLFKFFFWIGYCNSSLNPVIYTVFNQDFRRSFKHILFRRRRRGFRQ

Tyrosine-protein kinase Fgr (Homo sapiens), sequence (P09769 2-529 limits assumed): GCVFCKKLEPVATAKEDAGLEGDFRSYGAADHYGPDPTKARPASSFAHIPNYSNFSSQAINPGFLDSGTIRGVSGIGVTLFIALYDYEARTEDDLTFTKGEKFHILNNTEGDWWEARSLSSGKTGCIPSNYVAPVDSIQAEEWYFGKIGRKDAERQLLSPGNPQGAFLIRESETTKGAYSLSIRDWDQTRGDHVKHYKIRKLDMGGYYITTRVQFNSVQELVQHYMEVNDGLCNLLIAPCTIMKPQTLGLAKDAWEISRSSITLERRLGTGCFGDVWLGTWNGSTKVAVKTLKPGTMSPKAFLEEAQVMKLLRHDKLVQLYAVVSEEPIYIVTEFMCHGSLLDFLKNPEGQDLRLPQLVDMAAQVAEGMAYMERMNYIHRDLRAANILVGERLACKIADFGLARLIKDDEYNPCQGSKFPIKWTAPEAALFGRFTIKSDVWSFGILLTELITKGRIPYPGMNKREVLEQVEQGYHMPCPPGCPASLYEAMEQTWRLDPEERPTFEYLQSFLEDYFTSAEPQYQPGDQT
Interleukin-1 receptor-associated kinase 1 (Homo sapiens), sequence (P51617 whole entry, looked up): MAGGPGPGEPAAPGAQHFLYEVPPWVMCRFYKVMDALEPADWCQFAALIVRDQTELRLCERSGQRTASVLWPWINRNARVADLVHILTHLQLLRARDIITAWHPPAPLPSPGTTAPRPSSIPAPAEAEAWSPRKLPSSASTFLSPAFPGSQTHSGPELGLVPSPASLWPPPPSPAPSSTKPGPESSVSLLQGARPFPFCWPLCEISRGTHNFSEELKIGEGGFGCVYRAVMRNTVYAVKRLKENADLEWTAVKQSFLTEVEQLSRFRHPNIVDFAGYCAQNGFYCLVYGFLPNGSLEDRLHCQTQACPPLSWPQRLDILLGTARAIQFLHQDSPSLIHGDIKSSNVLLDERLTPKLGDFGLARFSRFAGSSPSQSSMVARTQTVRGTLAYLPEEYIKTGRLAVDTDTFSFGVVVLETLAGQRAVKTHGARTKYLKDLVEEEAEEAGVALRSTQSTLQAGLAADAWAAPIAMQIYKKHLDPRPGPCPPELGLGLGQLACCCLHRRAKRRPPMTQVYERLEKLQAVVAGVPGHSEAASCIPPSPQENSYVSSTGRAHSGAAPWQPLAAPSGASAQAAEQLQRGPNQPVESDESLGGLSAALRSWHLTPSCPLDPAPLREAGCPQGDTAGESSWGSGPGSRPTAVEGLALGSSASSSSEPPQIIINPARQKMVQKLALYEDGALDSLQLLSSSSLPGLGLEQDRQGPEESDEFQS
MAP/microtubule affinity-regulating kinase 3 (Homo sapiens), sequence (P27448 whole entry, looked up): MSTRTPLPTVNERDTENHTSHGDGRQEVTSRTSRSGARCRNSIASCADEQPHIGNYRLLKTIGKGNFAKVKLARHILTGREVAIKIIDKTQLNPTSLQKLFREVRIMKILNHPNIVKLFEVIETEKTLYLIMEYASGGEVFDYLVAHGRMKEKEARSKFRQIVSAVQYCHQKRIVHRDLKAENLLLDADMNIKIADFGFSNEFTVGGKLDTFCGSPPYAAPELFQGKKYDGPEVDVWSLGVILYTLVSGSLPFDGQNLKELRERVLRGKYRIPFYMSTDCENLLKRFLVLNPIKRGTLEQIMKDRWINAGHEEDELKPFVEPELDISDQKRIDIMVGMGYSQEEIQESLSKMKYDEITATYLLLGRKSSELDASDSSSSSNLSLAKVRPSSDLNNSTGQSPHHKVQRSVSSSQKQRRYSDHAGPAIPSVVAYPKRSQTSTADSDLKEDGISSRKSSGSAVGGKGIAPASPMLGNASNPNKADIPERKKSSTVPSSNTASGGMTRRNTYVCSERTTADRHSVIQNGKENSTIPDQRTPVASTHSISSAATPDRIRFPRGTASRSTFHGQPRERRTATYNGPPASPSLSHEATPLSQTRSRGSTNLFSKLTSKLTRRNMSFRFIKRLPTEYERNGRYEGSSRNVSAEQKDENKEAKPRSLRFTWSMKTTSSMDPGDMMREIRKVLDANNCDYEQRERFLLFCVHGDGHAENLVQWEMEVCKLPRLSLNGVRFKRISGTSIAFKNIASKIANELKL

Structure (SMILES): C=CC(=O)Nc1ccc(C(=O)Nc2[nH]nc3c2CN(C(=O)N[C@H](CN(C)C)c2ccccc2)C3(C)C)cc1
- % of engagement [1]: 1.3%

Structure (SMILES): COCC(=O)NC/C=C/c1ccc2ncnc(Nc3ccc(Oc4ccc(C)nc4)c(C)c3)c2c1 [CP-724714]
- % of control [2]: 100%

Structure (SMILES): Cc1cc(F)c(C(=O)Nc2cccc(-c3nncn3C(C)C)n2)cc1-n1cnc(C2CC2)c1
- % of control [3]: 100%

Structure (SMILES): Nc1cnc(N2CCc3cc(S(=O)(=O)Nc4c(F)cc(Cl)cc4F)cc(N4CCCC4=O)c32)nc1 [TP-020n]
- % of control [4]: 100%

Structure (SMILES): C=CC(=O)Nc1cccc(C(=O)Nc2ccc(Nc3cc(-c4[nH]c(SC)nc4C)ccn3)cc2)c1
- % of control ([5]; at 1 µM): 87%
- % of control ([5]; at 5 µM): 79%

Structure (SMILES): CCn1c(-c2nc3cc(C(=O)N4CCCC(N)C4)ccc3n2C)cc2ccccc21 (configuration not stated)
- pXC50 [6]: < 4.5 M
